What was measured:
Mus musculus [1] = assay: Concentration required toTRH reduced mean latencies mimetics in mice after i.p. administration using the Morris water maze test; 0.003-3; format: functional, organism-based
Mus musculus [2] = assay: Concentration required toTRH reduced mean latencies mimetics in mice after p.o. administration using the Morris water maze test; 0.003-3; format: functional, organism-based

## NC(=O)C[C@@H]1C[C@H](Cc2c[nH]cn2)C[C@H](C[C@@H]2CCC(=O)N2Cc2ccccc2)C1
Mus musculus [1]
  Concentration: 0.003 mg/kg
Mus musculus [2]
  Concentration: 0.003 mg/kg

— ChEMBL document CHEMBL1126848, “Concepts and progress in the development of peptide mimetics” (J Med Chem, 1993)
